Measured values from patent US20200017496A1 (priority 2017, published 2020).

Assays:
Type in all cases: cell-based
[1] = tested on: Proteus mirabilis (PMI) isolates; assay: microbe, parasite or virus in culture; conditions: AF1 @ 4 μg/mL
In short: (§1)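 Inoculum 5·10^5 CFU/mL (final), log phase, ca-MHB; 16-20 h, 35° C, ambient air. MIC = lowest conc. with no visible growth; ATB MIC read at each compound level.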

[2] = tested on: Citrobacter freundii (CFR) isolates; assay: MIC of compounds alone and combined with antibacterials, broth microdilution (CLSI)
In short: as §1

[3] = tested on: Providencia rettgeri (PRE) isolates; assay: as above
In short: as §1

[4] = tested on: Providencia stuartii (PST) isolates; assay: as above; conditions: AF1 @ 4 μg/mL
In short: as §1

[5] = tested on: Enterobacter aerogenes (EAE) isolates; assay: as above; conditions: AF1 @ 4 μg/mL
In short: as §1

[6] = tested on: Citrobacter koseri (CKR) isolates; assay: as above; conditions: AF1 @ 4 μg/mL
In short: as §1

[7] = tested on: Escherichia coli (ECO) isolates; assay: as above; conditions: AF1 @ 4 μg/mL
In short: as §1

[8] = tested on: Salmonella typhimurium (STY) isolates; assay: as above; conditions: STY S3371; AF1 @ 4 μg/mL
In short: as §1

COCC1=C(C(=O)O)N2C(=O)[C@@H](NC(=O)/C(=N\OC)c3csc(N)n3)[C@H]2SC1 [POD, Cefpodoxime]
MIC ATB in combination ([1]; PMI UFR82): 1 µg/mL
MIC ATB in combination ([1]; PMI UFR120): <=0.25 μg/mL
MIC ATB in combination ([1]; PMI UFR121): <=0.25 μg/mL
MIC ATB in combination ([1]; PMI UFR122): <=0.25 μg/mL
MIC ATB in combination ([1]; PMI UFR123): <=0.25 μg/mL
MIC ATB in combination ([1]; PMI UFR124): <=0.25 μg/mL
MIC ATB in combination ([1]; PMI UFR125): <=0.25 μg/mL
MIC ATB in combination ([1]; PMI UFR126): <=0.25 μg/mL
MIC ATB in combination ([1]; PMI UFR127): <=0.25 μg/mL
MIC ATB in combination ([1]; PMI UFR129): <=0.25 μg/mL
MIC ATB in combination ([1]; PMI UFR130): 0.5 µg/mL
MIC ATB in combination ([1]; PMI UFR237): <=0.25 μg/mL
MIC ATB in combination ([2]; CFR UFR10, AF1 @ 4 μg/mL): <=0.25 μg/mL
MIC ATB in combination ([2]; CFR UFR11, AF1 @ 4 μg/mL): 16 µg/mL
MIC ATB in combination ([2]; CFR UFR83, AF1 @ 4 μg/mL): >128 µg/mL
MIC ATB in combination ([2]; CFR UFR146, AF1 @ 4 μg/mL): 1 µg/mL
MIC ATB in combination ([2]; CFR UFR248, AF1 @ 4 μg/mL): 1 µg/mL
MIC ATB in combination ([2]; CFR UFR249, AF1 @ 4 μg/mL): <=0.25 μg/mL
MIC ATB in combination ([2]; CFR UFR250, AF1 @ 4 μg/mL): 0.5 µg/mL
MIC ATB in combination ([2]; strain CFR UFR253, antibacterial combined with AF1 @ 4 μg/mL): <=0.25 μg/mL
MIC ATB in combination ([2]; strain CFR UFR254, antibacterial combined with AF1 @ 4 μg/mL): <=0.25 μg/mL
MIC ATB in combination ([3]; PRE UFR99, AF1 @ 4 μg/mL): >128 µg/mL
MIC ATB in combination ([3]; strain PRE UFR236, antibacterial combined with AF1 @ 4 μg/mL): 1 µg/mL
MIC ATB in combination ([4]; PST UFR94): 0.5 µg/mL
MIC ATB in combination ([4]; PST UFR95): 2 µg/mL
MIC ATB in combination ([4]; PST UFR235): 2 µg/mL
MIC ATB in combination ([5]; EAE 49469): 8 µg/mL
MIC ATB in combination ([5]; EAE 200261): 4 µg/mL
MIC ATB in combination ([5]; EAE UFR199): 1 µg/mL
MIC ATB in combination ([5]; EAE UFR201): <=0.25 μg/mL
MIC ATB in combination ([5]; EAE UFR202): 2 µg/mL
MIC ATB in combination ([5]; EAE UFR213): 1 µg/mL
MIC ATB in combination ([6]; CKO ROU): 2 µg/mL
MIC ATB in combination ([6]; CKO UFR149): 8 µg/mL
MIC ATB in combination ([6]; CKO UFR150): 8 µg/mL
MIC ATB in combination ([7]; ECO 4133): <=0.25 μg/mL
MIC ATB in combination ([7]; ECO 5302): <=0.25 μg/mL
MIC ATB in combination ([7]; ECO 131119): <=0.25 μg/mL
MIC ATB in combination ([7]; ECO 180070): <=0.25 μg/mL
MIC ATB in combination ([7]; ECO 190314): <=0.25 μg/mL
MIC ATB in combination ([7]; ECO 190317): <=0.25 μg/mL
MIC ATB in combination ([7]; ECO 190457): <=0.25 μg/mL
MIC ATB in combination ([7]; ECO 190549): <=0.25 μg/mL
MIC ATB in combination ([7]; ECO 200159): <=0.25 μg/mL
MIC ATB in combination ([7]; ECO 200259): <=0.25 μg/mL
MIC ATB in combination ([7]; ECO 200344): <=0.25 μg/mL
MIC ATB in combination ([7]; ECO 260096): <=0.25 μg/mL
MIC ATB in combination ([7]; ECO 260304): <=0.25 μg/mL
MIC ATB in combination ([7]; ECO 260508): <=0.25 μg/mL
MIC ATB in combination ([7]; ECO RGN238): <=0.25 μg/mL
MIC ATB in combination ([7]; ECO UFR15): <=0.25 μg/mL
MIC ATB in combination ([7]; ECO UFR16): 1 µg/mL
MIC ATB in combination ([7]; ECO UFR17): >128 µg/mL
MIC ATB in combination ([7]; ECO UFR18): 8 µg/mL
MIC ATB in combination ([7]; ECO UFR19): 4 µg/mL
MIC ATB in combination ([7]; ECO UFR20): 4 µg/mL
MIC ATB in combination ([7]; ECO UFR61O): 0.5 µg/mL
MIC ATB in combination ([7]; ECO UFR62): 0.5 µg/mL
MIC ATB in combination ([7]; ECO UFR74): 2 µg/mL
MIC ATB in combination ([7]; ECO UFR86): 1 µg/mL
MIC ATB in combination ([7]; ECO UFR174): <=0.25 μg/mL
MIC ATB in combination ([7]; ECO UFR175): 1 µg/mL
MIC ATB in combination ([7]; ECO UFR176): <=0.25 μg/mL
MIC ATB in combination ([7]; ECO UFR184): 4 µg/mL
MIC ATB in combination ([7]; ECO UFR185): 32 µg/mL
MIC ATB in combination ([7]; ECO UFR186): 1 µg/mL
MIC ATB in combination ([7]; ECO UFR187): 0.5 µg/mL
MIC ATB in combination ([7]; ECO UFR189): <=0.25 μg/mL
MIC ATB in combination ([7]; ECO UFR190): <=0.25 μg/mL
MIC ATB in combination ([7]; ECO UFR191): <=0.25 μg/mL
MIC ATB in combination ([7]; ECO UFR207): <=0.25 μg/mL
MIC ATB in combination ([7]; ECO UFR208): 64 µg/mL
MIC ATB in combination ([7]; ECO UFR209): <=0.25 μg/mL
MIC ATB in combination ([7]; ECO UFR210): <=0.25 μg/mL
MIC ATB in combination ([7]; ECO UFR211): <=0.25 μg/mL
MIC ATB in combination ([7]; ECO UFR212): 32 µg/mL
MIC ATB in combination ([7]; ECO UFR218): <=0.25 μg/mL
MIC ATB in combination [8]: <=0.25 μg/mL
